Patent US7138361B2, “Herbicidal heterocycles” (E. I. du Pont de Nemours and Company, priority 2000, dated 2006)

What was measured:
Assay type in all cases: in vivo
[1] = system: Surinam grass (Brachiaria decumbens); test: Test B preemergence
Procedure, shortened: (§1)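 Ratings on a 0 to 100 visual scale (100 complete control) compare treated plants with controls 13 to 15 days after application. Treatments were pre- or postemergence sprays of compound in non-phytotoxic solvent with surfactant.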

[2] = system: barnyardgrass (Echinochloa crus-galli); test: Test B preemergence
Procedure, shortened: as §1

[3] = system: cocklebur (Xanthium strumarium); test: Test B preemergence
Procedure, shortened: as §1

corn (Zea mays) = test: Test B preemergence
Procedure, shortened: as §1

[4] = system: crabgrass (Digitaria sanguinalis); test: Test B preemergence
Procedure, shortened: as §1

[5] = system: giant foxtail (Setaria faberii); test: Test B preemergence
Procedure, shortened: as §1

[6] = system: lambsquarters (Chenopodium album); test: Test B preemergence
Procedure, shortened: as §1

[7] = system: morning glory (Ipomoea hederacea); test: Test B preemergence
Procedure, shortened: as §1

[8] = system: pigweed (Amaranthus retroflexus); test: Test B preemergence
Procedure, shortened: as §1

rice (Oryza saliva) = test: Test B preemergence
Procedure, shortened: as §1

[9] = system: velvetleaf (Abutilon theophrasti); test: Test B preemergence
Procedure, shortened: as §1

Sunflower [10] = test: Test C preemergence; details: Rate 125 g/ha; scale 0 to 100, 0 no effect, 100 complete control
[11] = system: Surinam grass (Brachiaria decumbens); test: Test C preemergence
Procedure, shortened: (§2)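 Seeds are planted and treated before emergence; for the postemergence test, plants at 1- to 4-leaf stage (2–18 cm) receive the same formulation, a solvent blend containing surfactant. Plants stay in the greenhouse 12–14 days, then response is scored visually from 0 (none) to 100 (complete control).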

[12] = system: bermudagrass (Cynodon dactylon); test: Test C preemergence
Procedure, shortened: as §2

[13] = system: cocklebur (Xanthium strumarium); test: Test C preemergence
Procedure, shortened: as §2

[14] = system: common ragweed (Ambrosia elatior); test: Test C preemergence
Procedure, shortened: as §2

[15] = system: crabgrass (Digitaria sanguinalis); test: Test C preemergence
Procedure, shortened: as §2

[16] = system: giant foxtail (Setaria faberii); test: Test C preemergence
Procedure, shortened: as §2

[17] = system: goosegrass (Eleusine indica); test: Test C preemergence
Procedure, shortened: as §2

[18] = system: morningglory (Ipomoea hederacea); test: Test C preemergence
Procedure, shortened: as §2

[19] = system: velvetleaf (Abutilon theophrasti); test: Test C preemergence
Procedure, shortened: as §2

Sunflower [20] = test: Test C preemergence; details: Rate 500 g/ha, visual evaluation after 12 to 14 days
[21] = Preemergence, Rate 500 g/ha, scale 0 to 100, 0 no effect, 100 complete control
[22] = preemergence, Rate 125 g/ha, scale of 0 to 100 where 0 is no effect and 100 is complete control, 13 to 15 days
[23] = Rate 125 g/ha, scale 0 to 100, 0 no effect, 100 complete control
[24] = preemergence, Rate 62 g/ha, scale 0 to 100
[25] = preemergence, Rate 500 g/ha, visual evaluation after 12 to 14 days
[26] = preemergence, Rate 250 g/ha, scale 0 to 100, 0 no effect, 100 complete control

CCC(C)Oc1cccc(N2CCC(n3ccc(C(C)(C)C)n3)C2=O)c1 (stereo not drawn) [Compound 127]
90: Plant response rating, Lambsquarters [6, 22] | Plant response rating, Bermudagrass [12, 24]
70: Plant response rating, Surinam grass [1, 21] | Plant response rating, Foxtail, Giant [5, 22] | Plant response rating, Crabgrass [15, 23]
50: Plant response rating, Rice (rice (Oryza saliva); [21]) | Plant response rating, Crabgrass [15, 24]
10: Plant response rating (0 to 100), Ragweed, Common [14, 25] | Plant response rating, Ragweed, Common [14, 26] | Plant response rating, Goosegrass [17, 24] | Plant response rating, Velvetleaf [19, 26]
30: Plant response rating, Goosegrass [17, 23] | Plant response rating (0 to 100), Velvetleaf [19, 25]
100: Plant response rating, Barnyardgrass [2, 21] | Plant response rating, Crabgrass [4, 21] | Plant response rating, Crabgrass [4, 22] | Plant response rating, Foxtail, Giant [5, 21] | Plant response rating, Lambsquarters [6, 21] | Plant response rating, Pigweed [8, 21] | Plant response rating (0 to 100), Surinam grass [11, 25] | Plant response rating, Bermudagrass [12, 23] | Plant response rating (0 to 100 where 0 is no effect and 100 is complete control), Bermudagrass [12, 25] | Plant response rating, Bermudagrass [12, 26] | Plant response rating (0 to 100), Crabgrass [15, 25] | Plant response rating, Crabgrass [15, 26] | Plant response rating (0 to 100), Foxtail, Giant [16, 25] | Plant response rating, Foxtail, Giant [16, 26] | Plant response rating (0 to 100), Goosegrass [17, 25] | Plant response rating, Goosegrass [17, 26]
0: Plant response rating, Surinam grass [1, 22] | Plant response rating, Barnyardgrass [2, 22] | Plant response rating, Cocklebur [3, 21] | Plant response rating, Cocklebur [3, 22] | Plant response rating, Corn (corn (Zea mays); [21]) | Plant response rating, Corn (corn (Zea mays); [22]) | Plant response rating, Morningglory [7, 21] | Plant response rating, Morningglory [7, 22] | Plant response rating, Pigweed [8, 22] | Plant response rating, Rice (rice (Oryza saliva); [22]) | Plant response rating, Velvetleaf [9, 21] | Plant response rating, Velvetleaf [9, 22] | Plant response rating, Sunflower (Sunflower [10]) | Plant response rating, Surinam grass [11, 23] | Plant response rating, Surinam grass [11, 24] | Plant response rating, Cocklebur [13, 23] | Plant response rating, Cocklebur [13, 24] | Plant response rating, Cocklebur [13, 26] | Plant response rating, Ragweed, Common [14, 23] | Plant response rating, Ragweed, Common [14, 24] | Plant response rating, Foxtail, Giant [16, 23] | Plant response rating, Foxtail, Giant [16, 24] | Plant response rating, Morningglory [18, 23] | Plant response rating, Morningglory [18, 24] | Plant response rating, Morningglory [18, 26] | Plant response rating, Velvetleaf [19, 23] | Plant response rating, Velvetleaf [19, 24] | Plant response rating (0 to 100), Sunflower (Sunflower [20])
20: Plant response rating, Surinam grass [11, 26] | Plant response rating (0 to 100), Cocklebur [13, 25] | Plant response rating (0 to 100), Morningglory [18, 25]
